The values that follow are results of earlier work, collected in patent US11304951B1 (Janssen Pharmaceutica NV, priority 2020, dated 2022).

Consider `CCCCCCCCCCCCCCCC(=O)OC1CCCn2c1nc(C)c(CCN1CCC(c3noc4cc(F)ccc34)CC1)c2=O` (racemic) [paliperidone palmitate, (±)-3-[2-[4-(6-fluoro-1,2-benzisoxazol-3-yl)-1-piperidinyl]ethyl]-6,7,8,9-tetrahydro-2-methyl-4-oxo-4H-pyrido[1,2-c]pyrimidin-9-yl hexadecanoate], for which the water solubility result is reported as “extreme low water solubility”.
